Marks after values point to notes of the source that are not given here.
What was measured:
Assay type in all cases: cell-based
GEF [1] = assay: GEF-activity in membrane fractions of Caco-2 cells (RhoGEF Exchange Assay)
Procedure: (§1) To measure the GEF-inhibitory effect, the following cell lines were used: Caco-2 (epithelial cells from adeno-carcinoma), ECV304 (epithelial cells from bladder carcinoma) and HpMec (endothelial cells, immortalized pulmonary micro-vascular cells). All cells were grown at standard conditions (37° C., 5% CO2 and 95% relative humidity (rH)). Culture Medium used for Caco-2: DMEM+1 mM sodium pyruvate+20% FCS+1% Penicillin Streptomycin; for ECV 304: RPMI 1640+10% FCS+1% Penicillin Streptomycin; and for HpMec: IMDM+25 mM Hepes+10% Human Serum+1% Penicillin Streptomycin+1% L-Glutamine+ECGS/Heparin 2 ml. 4 h before the experiment, cells were starved by serum withdrawal. To induce GEF-activity, cells were stimulated with thrombin, lipopolysaccharide (LPS) or PMA for the indicated time in presence or absence of 50 μg/ml XIB1-a or XIB1-b. After stimulation, membrane fractions were prepared by using the commercial available “Compartemental Protein Extraction Kit” from Biochain institutes. Membrane fractions were prepared according to the manufacturer instructions. GEF-activity in membrane lysates was determined by using “RhoGEF Exchange Assay Biochem Kit” from Cytoskeleton Inc. according to manufacturer instructions. GEF-activity was measured as fluorescence at using the Fluoroskan Ascent FL 2.6 from Thermo Electron Corporation. The excitation Filter wavelength was set at 355 nm and the emission filter wavelength at 460 nm.

GEF [2] = assay: GEF-activity in membrane fractions of HpMec cells (RhoGEF Exchange Assay); conditions: HpMec
Procedure: as §1

GTP-bound RhoA [3] = assay: GTP-associated active RhoA in HpMec membrane fraction (western blot); conditions: HpMec
Procedure: (§2) To measure the GTP-associated active RhoA, the following cell lines were used: Caco-2, ECV304 and HpMec. All cells were grown at standard conditions (37° C., 5% CO2 and 95% rH). 4 h before the experiment, cells were starved by serum withdrawal. To induce GEF-activity, cells were stimulated with thrombin, LPS or PMA for the indicated time in presence or absence of 50 μg/ml XIB1-a or XIB1-b. After stimulation, membrane fractions were prepared by using the commercial available “Compartemental Protein Extraction Kit” from Biochain Institutes. Membrane fractions were prepared according to the manufacturer instructions. The membrane fraction was separated on 15% polyacrylamide gel according to standard procedures of gel electrophoresis. The gels were afterwards blotted on a nitrocellulose membrane according to standard procedures of western blotting. GTP-bound RhoA was detected using RhoA-GTP monoclonal antibody from NewEast Inc. in a dilution of 1:5000. Protein bands were analyzed with the Dolphin-1D Gel analysis system (Wealtec).

GTP-bound RhoA [4] = assay: GTP-associated active RhoA in Caco-2 membrane fraction (western blot)
Procedure: as §2

[5] = test system: Phosphorylated Myosin Light Chain (MLC) and actin stress fibers; assay: MLC phosphorylation and actin stress fiber formation in HpMec cells (microscopy score)
Procedure: (§3) To measure MLC phosphorylation and actin stress fiber formation, the following cell lines were used: Caco-2, ECV304 and HpMec. All cells were grown at standard conditions (37° C., 5% CO2 and 95% rH). Culture Medium used: for Caco-2: DMEM+1 mM sodium pyruvate+20% FCS+1% Penicillin Streptomycin; for ECV 304: RPMI 1640+10% FCS+1% Penicillin Streptomycin; and for HpMec: IMDM+25 mM Hepes+10% Human Serum+1% Penicillin Streptomycin+1% L-Glutamine+ECGS/Heparin 2 ml. 4 h before the experiment, cells were starved by serum withdrawal. To induce GEF-activity, cells were stimulated with thrombin, LPS or PMA for the indicated time in presence or absence of 50 μg/ml XIB1-a or XIB1-b. After stimulation, cells were fixed using 4% PFA. Phospho MLC was detected by using the “rabbit anti phosphor-myosin light chain antibody” from Chemicon in a concentration of 3 μl/ml in PBS (Gibco) supplemented with 0.1% Triton X-100. As detection antibody, the Alexa 448 tagged “anti Rabbit IgG Antibody” from Invitrogen was used in a concentration of 0.5 μl/ml in PBS (Gibco) supplemented with 0.1% Triton X-100. Aktin was detected using TRITC-labeled Phalloidin in a concentration of 0.5 μl/ml in PBS (Gibco) supplemented with 0.1% Triton. Stained cells were analyzed by using a Zeiss Laser Scan microscope. Evaluation of the cyto-skeletal activation was performed by 2 independent observers that were blinded to the conditions. Evaluation criteria were set as follows:
(§4) Actin: parallel actin bundles absent=0; distinct bundle formation=1; prominent parallel bundles=2; Phospho-MLC: present at cell poles=0; slight co-localization with actin bundles=1; prominent co-localization with actin bundles=2

GTP-bound RhoA [6] = assay: GTP-associated active RhoA in ECV304 membrane fraction (western blot)
Procedure: as §2

GEF [7] = assay: GEF-activity in membrane fractions of ECV304 cells (RhoGEF Exchange Assay)
Procedure: as §1

[8] = test system: Phosphorylated Myosin Light Chain (MLC) and actin stress fibers; assay: MLC phosphorylation and actin stress fiber formation in ECV304 cells (microscopy score)
Procedure: as §3, §4

[9] = test system: Phosphorylated Myosin Light Chain (MLC) and actin stress fibers; assay: MLC phosphorylation and actin stress fiber formation in Caco-2 cells (microscopy score)
Procedure: as §3, §4

[10] = CaCo-2, PMA 1 μg/ml, 1 min, with or without peptide 50 μg/ml
[11] = CaCo-2, PMA 1 μg/ml, 5 min, with or without peptide 50 μg/ml
[12] = CaCo-2, no stimulus, 1 min, peptide 50 μg/ml
[13] = CaCo-2, no stimulus, 5 min, peptide 50 μg/ml
[14] = Thrombin 1 U/ml, 1 min, with or without peptide 50 μg/ml
[15] = Thrombin 1 U/ml, 5 min, with or without peptide 50 μg/ml
[16] = no stimulus, 1 min, peptide 50 μg/ml
[17] = no stimulus, 5 min, peptide 50 μg/ml
[18] = ECV 304, LPS 100 μg/ml, 1 min, with or without peptide 50 μg/ml
[19] = ECV 304, LPS 100 μg/ml, 5 min, with or without peptide 50 μg/ml
[20] = ECV 304, Thrombin 1 U/ml, 1 min, with or without peptide 50 μg/ml
[21] = ECV 304, Thrombin 1 U/ml, 5 min, with or without peptide 50 μg/ml
[22] = ECV 304, no stimulus, 1 min, peptide 50 μg/ml
[23] = ECV 304, no stimulus, 5 min, peptide 50 μg/ml

GRRPGGASGG (/note=“Description of artificial sequence cingulin-derived peptide XIB1-a”)
GEF-activity, relative values compared to unstimulated control (Mean) (GEF [1]; [10]): 1.4*
GEF-activity, relative values compared to unstimulated control (Mean) (GEF [1]; [11]): 1.5
GEF-activity, relative values compared to unstimulated control (Mean) (GEF [1]; [12]): 1
GEF-activity, relative values compared to unstimulated control (Mean) (GEF [1]; [13]): 1
GEF-activity, relative values compared to unstimulated control (Mean) (GEF [2]; [14]): 1.8*
GEF-activity, relative values compared to unstimulated control (Mean) (GEF [2]; [15]): 2.1*
GEF-activity, relative values compared to unstimulated control (Mean) (GEF [2]; [16]): 1
GEF-activity, relative values compared to unstimulated control (Mean) (GEF [2]; [17]): 1
GTP-bound RhoA, relative values compared to unstimulated control (Mean) (GTP-bound RhoA [3]; [14]): 2.1*
GTP-bound RhoA, relative values compared to unstimulated control (Mean) (GTP-bound RhoA [3]; [15]): 1.3*
GTP-bound RhoA, relative values compared to unstimulated control (Mean) (GTP-bound RhoA [3]; [16]): 1
GTP-bound RhoA, relative values compared to unstimulated control (Mean) (GTP-bound RhoA [3]; [17]): 1
GTP-bound RhoA, relative values compared to unstimulated control (Mean) (GTP-bound RhoA [4]; [10]): 1.4*
GTP-bound RhoA, relative values compared to unstimulated control (Mean) (GTP-bound RhoA [4]; [11]): 1.3*
GTP-bound RhoA, relative values compared to unstimulated control (Mean) (GTP-bound RhoA [4]; [12]): 1
GTP-bound RhoA, relative values compared to unstimulated control (Mean) (GTP-bound RhoA [4]; [13]): 1
MLC phosphorylation and actin stress fiber formation, evaluation score (Mean) [5, 14]: 1*
MLC phosphorylation and actin stress fiber formation, evaluation score (Mean) [5, 15]: 0.3*
MLC phosphorylation and actin stress fiber formation, evaluation score (Mean) [5, 16]: 0
MLC phosphorylation and actin stress fiber formation, evaluation score (Mean) [5, 17]: 0
GTP-bound RhoA, relative values compared to unstimulated control (Mean) (GTP-bound RhoA [6]; [18]): 1.6*
GTP-bound RhoA, relative values compared to unstimulated control (Mean) (GTP-bound RhoA [6]; [19]): 1.7*
GTP-bound RhoA, relative values compared to unstimulated control (Mean) (GTP-bound RhoA [6]; [20]): 2.1*
GTP-bound RhoA, relative values compared to unstimulated control (Mean) (GTP-bound RhoA [6]; [21]): 1.9*
GTP-bound RhoA, relative values compared to unstimulated control (Mean) (GTP-bound RhoA [6]; [22]): 1
GTP-bound RhoA, relative values compared to unstimulated control (Mean) (GTP-bound RhoA [6]; [23]): 1
GEF-activity, relative values compared to unstimulated control (Mean) (GEF [7]; [18]): 1.7*
GEF-activity, relative values compared to unstimulated control (Mean) (GEF [7]; [19]): 1.3*
GEF-activity, relative values compared to unstimulated control (Mean) (GEF [7]; [20]): 2.5*
GEF-activity, relative values compared to unstimulated control (Mean) (GEF [7]; [21]): 1.5*
GEF-activity, relative values compared to unstimulated control (Mean) (GEF [7]; [22]): 1
GEF-activity, relative values compared to unstimulated control (Mean) (GEF [7]; [23]): 1
MLC phosphorylation and actin stress fiber formation, evaluation score (Mean) [8, 18]: 1*
MLC phosphorylation and actin stress fiber formation, evaluation score (Mean) [8, 19]: 1*
MLC phosphorylation and actin stress fiber formation, evaluation score (Mean) [8, 20]: 1*
MLC phosphorylation and actin stress fiber formation, evaluation score (Mean) [8, 21]: 1*
MLC phosphorylation and actin stress fiber formation, evaluation score (Mean) [8, 22]: 1
MLC phosphorylation and actin stress fiber formation, evaluation score (Mean) ([8]; ECV 304, no stimulus, 1 min, peptide 50 μg/ml, listed as XIB-a): 0
MLC phosphorylation and actin stress fiber formation, evaluation score (Mean) [9, 10]: 1*
MLC phosphorylation and actin stress fiber formation, evaluation score (Mean) [9, 11]: 2*
MLC phosphorylation and actin stress fiber formation, evaluation score (Mean) [9, 12]: 0
MLC phosphorylation and actin stress fiber formation, evaluation score (Mean) [9, 13]: 0

GRRPLGGISGG (/note=“Description of artificial sequence cingulin-derived peptide XIB1-b”)
GEF-activity, relative values compared to unstimulated control (Mean) (GEF [1]; [10]): 1.4*
GEF-activity, relative values compared to unstimulated control (Mean) (GEF [1]; [11]): 1.5
GEF-activity, relative values compared to unstimulated control (Mean) (GEF [1]; [12]): 1
GEF-activity, relative values compared to unstimulated control (Mean) (GEF [1]; [13]): 1
GEF-activity, relative values compared to unstimulated control (Mean) (GEF [2]; [14]): 1.8*
GEF-activity, relative values compared to unstimulated control (Mean) (GEF [2]; [15]): 2.1*
GEF-activity, relative values compared to unstimulated control (Mean) (GEF [2]; [16]): 1
GEF-activity, relative values compared to unstimulated control (Mean) (GEF [2]; [17]): 1
GTP-bound RhoA, relative values compared to unstimulated control (Mean) (GTP-bound RhoA [3]; [14]): 2.1*
GTP-bound RhoA, relative values compared to unstimulated control (Mean) (GTP-bound RhoA [3]; [15]): 1.3*
GTP-bound RhoA, relative values compared to unstimulated control (Mean) (GTP-bound RhoA [3]; [16]): 1
GTP-bound RhoA, relative values compared to unstimulated control (Mean) (GTP-bound RhoA [3]; [17]): 1
GTP-bound RhoA, relative values compared to unstimulated control (Mean) (GTP-bound RhoA [4]; [10]): 1.4*
GTP-bound RhoA, relative values compared to unstimulated control (Mean) (GTP-bound RhoA [4]; [11]): 1.3*
GTP-bound RhoA, relative values compared to unstimulated control (Mean) (GTP-bound RhoA [4]; [12]): 1
GTP-bound RhoA, relative values compared to unstimulated control (Mean) (GTP-bound RhoA [4]; [13]): 1
MLC phosphorylation and actin stress fiber formation, evaluation score (Mean) [5, 14]: 1*
MLC phosphorylation and actin stress fiber formation, evaluation score (Mean) [5, 15]: 0.3*
MLC phosphorylation and actin stress fiber formation, evaluation score (Mean) [5, 16]: 0
MLC phosphorylation and actin stress fiber formation, evaluation score (Mean) [5, 17]: 0
GTP-bound RhoA, relative values compared to unstimulated control (Mean) (GTP-bound RhoA [6]; [18]): 1.6*
GTP-bound RhoA, relative values compared to unstimulated control (Mean) (GTP-bound RhoA [6]; [19]): 1.7*
GTP-bound RhoA, relative values compared to unstimulated control (Mean) (GTP-bound RhoA [6]; [20]): 2.1*
GTP-bound RhoA, relative values compared to unstimulated control (Mean) (GTP-bound RhoA [6]; [21]): 1.9*
GTP-bound RhoA, relative values compared to unstimulated control (Mean) (GTP-bound RhoA [6]; [22]): 1
GTP-bound RhoA, relative values compared to unstimulated control (Mean) (GTP-bound RhoA [6]; [23]): 1
GEF-activity, relative values compared to unstimulated control (Mean) (GEF [7]; [18]): 1.7*
GEF-activity, relative values compared to unstimulated control (Mean) (GEF [7]; [19]): 1.3*
GEF-activity, relative values compared to unstimulated control (Mean) (GEF [7]; [20]): 2.5*
GEF-activity, relative values compared to unstimulated control (Mean) (GEF [7]; [21]): 1.5*
GEF-activity, relative values compared to unstimulated control (Mean) (GEF [7]; [22]): 1
GEF-activity, relative values compared to unstimulated control (Mean) (GEF [7]; [23]): 1
MLC phosphorylation and actin stress fiber formation, evaluation score (Mean) [8, 18]: 1*
MLC phosphorylation and actin stress fiber formation, evaluation score (Mean) [8, 19]: 1*
MLC phosphorylation and actin stress fiber formation, evaluation score (Mean) [8, 20]: 1*
MLC phosphorylation and actin stress fiber formation, evaluation score (Mean) [8, 21]: 1*
MLC phosphorylation and actin stress fiber formation, evaluation score (Mean) [9, 10]: 1*
MLC phosphorylation and actin stress fiber formation, evaluation score (Mean) [9, 11]: 2*
MLC phosphorylation and actin stress fiber formation, evaluation score (Mean) [9, 12]: 0
MLC phosphorylation and actin stress fiber formation, evaluation score (Mean) [9, 13]: 0

From US9012403B2, “Peptides as active agents to stabilize biological barriers” (XiberScience GmbH, priority 2010, dated 2015)
